In ChEMBL document CHEMBL2074412, “Cloning of the human kidney PAH transporter: narrow substrate specificity and regulation by protein kinase C” (Am J Physiol, 1999):

Assays:
Type in all cases: functional, cell-based
[1] = target: T1, Solute carrier family 22 member 6 (Homo sapiens, UniProt Q4U2R8); experiment: TP_TRANSPORTER: inhibition of PAH uptake (Anandamide: 100 uM) in OAT1-expressing HeLa cells
T1 sequence (Q4U2R8 whole entry): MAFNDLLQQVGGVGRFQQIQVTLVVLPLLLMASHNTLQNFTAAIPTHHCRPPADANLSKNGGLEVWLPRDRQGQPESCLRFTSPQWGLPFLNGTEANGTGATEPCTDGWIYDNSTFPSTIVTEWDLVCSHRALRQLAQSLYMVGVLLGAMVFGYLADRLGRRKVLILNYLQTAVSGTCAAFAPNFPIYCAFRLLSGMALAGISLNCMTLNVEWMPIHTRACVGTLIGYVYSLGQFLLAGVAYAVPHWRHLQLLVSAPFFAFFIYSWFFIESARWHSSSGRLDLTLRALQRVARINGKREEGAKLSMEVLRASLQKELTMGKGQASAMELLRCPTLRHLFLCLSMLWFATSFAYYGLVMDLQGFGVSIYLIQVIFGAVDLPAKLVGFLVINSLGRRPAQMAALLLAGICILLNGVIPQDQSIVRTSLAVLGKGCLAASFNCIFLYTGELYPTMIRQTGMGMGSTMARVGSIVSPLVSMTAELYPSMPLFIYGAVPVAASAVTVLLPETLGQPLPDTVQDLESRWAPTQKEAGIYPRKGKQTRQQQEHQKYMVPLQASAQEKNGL

[2] = target: T1, Solute carrier family 22 member 6; experiment: TP_TRANSPORTER: inhibition of PAH uptake (Furosemide: 200 uM) in OAT1-expressing HeLa cells
[3] = target: T1, Solute carrier family 22 member 6; experiment: TP_TRANSPORTER: inhibition of PAH uptake (PAH: 0.4 uM, Phenylbutazone: 200 uM) in OAT1-expressing HeLa cells
[4] = target: T1, Solute carrier family 22 member 6; experiment: TP_TRANSPORTER: inhibition of PAH uptake (Indomethacin: 200 uM) in OAT1-expressing HeLa cells
[5] = target: T1, Solute carrier family 22 member 6; experiment: TP_TRANSPORTER: uptake in OAT1-expressing HeLa cells
[6] = target: T1, Solute carrier family 22 member 6; experiment: TP_TRANSPORTER: inhibition of PAH uptake (alpha,-KG: 200 uM) in OAT1-expressing HeLa cells

How did the Activity [1] turn out when `CCCCC/C=C\C/C=C\C/C=C\C/C=C\CCCC(=O)NCCO` [ANANDAMIDE] was run?
Its Activity is “is not an inhibitor [-]”.

Which Activity [2] does the source give for `NS(=O)(=O)c1cc(C(=O)O)c(NCc2ccco2)cc1Cl` [FUROSEMIDE] here?
The Activity was “inhibitor [(at a rough estimate) 50 % of control]”.

For `O=C1OC2(c3ccc(O)cc3Oc3cc(O)ccc32)c2ccccc21` [FLUORESCEIN], which Activity [3] is on record?
Its Activity is “inhibitor [(at a rough estimate) 20 % of control]”.

Which Activity [4] does the source give for `COc1ccc2c(c1)c(CC(=O)O)c(C)n2C(=O)c1ccc(Cl)cc1` [INDOMETHACIN] here?
Its Activity is “inhibitor [(at a rough estimate) 20 % of control]”.

Which Activity [5] does the source give for `O=C(O)CCC(=O)C(=O)O` [ALPHA-KETOGLUTARIC ACID] here?
Its Activity is “substrate [+]”.

What about the Activity [6] of the same compound?
Its Activity is “inhibitor [(at a rough estimate) 35 % of control]”.
